Measurements reported in US7820623B2 (priority 2006, dated 2010).
Read-outs that look alike come from different tables or passages of the source. Bridge positions count the residues as written; N and C are the ends. Square brackets hold non-standard residues; d marks the D form. Peptide text beside a SMILES is read from it. 1Nal = N[C@@H](Cc1cccc2ccccc12)C(=O)O

Experiments:
[1] = system: thapsigargin-induced IFN-g production in human whole blood; format: cell-based
[2] = system: thapsigargin-induced IL-2 production in human whole blood
[3] = read-out: Analogue Activity (IC50) WB/IFNg
[4] = read-out: Analogue Activity (IC50) WB/IL-2

Row | Molecule | IC50 [1, 3] [nM] | IC50 [2, 4] [nM] | IC50 ([1]; read-out: Average IC50 IFNg) [nM] | IC50 ([2]; read-out: Average IC50 IL-2) [nM]
1 | CC[C@H](C)[C@H](NC(=O)[C@@H](NC(=O)CN)C(C)C)C(=O)N[C@H](C(=O)N[C@@H](CC(N)=O)C(=O)N[C@H](C(=O)N[C@@H](CCCCN)C(=O)N[C@H]1CSSC[C@@H]2NC(=O)[C@H](CCCCN)NC(=O)CNC(=O)[C@H](Cc3ccccc3)NC(=O)[C@H](CCCNC(=N)N)NC(=O)[C@H](CCSC)NC(=O)CNC(=O)[C@H](C)NC(=O)[C@H](CCCCN)NC(=O)[C@H](CCCCN)NC(=O)[C@@H]3CSSC[C@@H](C(=O)N[C@H](C(=O)N4CCC[C@H]4C(=O)N[C@@H](CCCCN)C(=O)O)[C@@H](C)O)NC(=O)[C@H](Cc4c[nH]cn4)NC(=O)[C@H](CSSC[C@H](NC(=O)[C@H](CCC(N)=O)NC(=O)[C@H](CCCNC(=N)N)NC(=O)[C@H](CO)NC(=O)[C@H](C)NC(=O)[C@H](CCCCN)NC1=O)C(=O)N[C@@H](CC(C)C)C(=O)N[C@@H](CCC(=O)O)C(=O)N1CCC[C@H]1C(=O)N3)NC(=O)[C@H](CCCCN)NC(=O)CNC(=O)[C@H](CC(N)=O)NC(=O)[C@H](CCSC)NC2=O)C(C)C)[C@@H](C)CC [I10A] (H-GVIINVKCKASRQCLEPCKKAGMRFGKCMNGKCHCTPK-OH; disulfide 8-28, 14-33, 18-35) | 0.0296 | 0.05 | – | –
2 | CC[C@H](C)[C@@H]1NC(=O)[C@H](CCCCN)NC(=O)[C@@H](NC(=O)[C@H](CCCCN)NC(=O)[C@@H](NC(=O)[C@H](CC(N)=O)NC(=O)[C@@H](NC(=O)[C@@H](NC(=O)[C@@H](NC(=O)[C@@H](N)CCCNC(=N)N)C(C)C)[C@@H](C)CC)[C@@H](C)CC)C(C)C)CSSC[C@@H]2NC(=O)[C@H](CCCCN)NC(=O)CNC(=O)[C@H](Cc3ccccc3)NC(=O)[C@H](CCCNC(=N)N)NC(=O)[C@H](CCSC)NC(=O)CNC(=O)[C@H](C)NC(=O)[C@H](CCCCN)NC(=O)[C@H](CCCCN)NC(=O)[C@@H]3CSSC[C@@H](C(=O)N[C@H](C(=O)N4CCC[C@H]4C(=O)N[C@@H](CCCCN)C(=O)O)[C@@H](C)O)NC(=O)[C@H](Cc4c[nH]cn4)NC(=O)[C@H](CSSC[C@H](NC(=O)[C@H](CCC(N)=O)NC(=O)[C@H](CCCNC(=N)N)NC(=O)[C@H](CO)NC1=O)C(=O)N[C@@H](CC(C)C)C(=O)N[C@@H](CCC(=O)O)C(=O)N1CCC[C@H]1C(=O)N3)NC(=O)[C@H](CCCCN)NC(=O)CNC(=O)[C@H](CC(N)=O)NC(=O)[C@H](CCSC)NC2=O [G1R] (H-RVIINVKCKISRQCLEPCKKAGMRFGKCMNGKCHCTPK-OH; disulfide 8-28, 14-33, 18-35) | 0.991 | 0.554 | – | –
3 | CC[C@H](C)[C@@H]1NC(=O)[C@H](CCCCN)NC(=O)[C@@H](NC(=O)[C@H](CCCCN)NC(=O)[C@@H](NC(=O)[C@H](CC(N)=O)NC(=O)[C@@H](NC(=O)[C@@H](NC(=O)[C@@H](NC(=O)CN)C(C)C)[C@@H](C)CC)[C@@H](C)CC)C(C)C)CSSC[C@@H]2NC(=O)[C@H](CCCCN)NC(=O)CNC(=O)[C@H](Cc3ccccc3)NC(=O)[C@H](CCCNC(=N)N)NC(=O)[C@H](CCSC)NC(=O)CNC(=O)[C@H](C)NC(=O)[C@H](CCCCN)NC(=O)[C@H](Cc3cccc4ccccc34)NC(=O)[C@@H]3CSSC[C@@H](C(=O)N[C@H](C(=O)N4CCC[C@H]4C(=O)N[C@@H](CCCCN)C(=O)O)[C@@H](C)O)NC(=O)[C@H](Cc4c[nH]cn4)NC(=O)[C@H](CSSC[C@H](NC(=O)[C@H](CCC(N)=O)NC(=O)[C@H](CCCNC(=N)N)NC(=O)[C@H](CO)NC1=O)C(=O)N[C@@H](CC(C)C)C(=O)N[C@@H](CCC(=O)O)C(=O)N1CCC[C@H]1C(=O)N3)NC(=O)[C@H](CCCCN)NC(=O)CNC(=O)[C@H](CC(N)=O)NC(=O)[C@H](CCSC)NC2=O [K19Nal] (H-GVIINVKCKISRQCLEPC[1Nal]KAGMRFGKCMNGKCHCTPK-OH; disulfide 8-28, 14-33, 18-35) | 0.099 | 0.058 | – | –
4 | CC[C@H](C)[C@@H]1NC(=O)[C@H](CCCCN)NC(=O)[C@@H](NC(=O)[C@H](CCCCN)NC(=O)[C@@H](NC(=O)[C@H](CC(N)=O)NC(=O)[C@@H](NC(=O)[C@@H](NC(=O)[C@@H](NC(=O)CN)C(C)C)[C@@H](C)CC)[C@@H](C)CC)C(C)C)CSSC[C@@H]2NC(=O)[C@H](CCCCN)NC(=O)CNC(=O)[C@H](Cc3ccccc3)NC(=O)[C@H](CCCNC(=N)N)NC(=O)[C@H](CCSC)NC(=O)CNC(=O)[C@H](C)NC(=O)[C@H](CCCCN)NC(=O)[C@H](CCCCN)NC(=O)[C@@H]3CSSC[C@@H](C(=O)N[C@H](C(=O)N4CCC[C@H]4C(=O)N[C@@H](CCCNC(=N)N)C(=O)O)[C@@H](C)O)NC(=O)[C@H](Cc4c[nH]cn4)NC(=O)[C@H](CSSC[C@H](NC(=O)[C@H](CCC(N)=O)NC(=O)[C@H](CCCNC(=N)N)NC(=O)[C@H](CO)NC1=O)C(=O)N[C@@H](CC(C)C)C(=O)N[C@@H](CCC(=O)O)C(=O)N1CCC[C@H]1C(=O)N3)NC(=O)[C@H](CCCCN)NC(=O)CNC(=O)[C@H](CC(N)=O)NC(=O)[C@H](CCSC)NC2=O [K38R] (H-GVIINVKCKISRQCLEPCKKAGMRFGKCMNGKCHCTPR-OH; disulfide 8-28, 14-33, 18-35) | 0.04 | 0.039 | – | –
5 | GVIINVKCKISRQCLEPCKKAAMRFGKCMNGKCHCTPK [Ala-22 (SEQ ID No: 1418)] | – | – | 7.09 | 7.09
6 | CC[C@H](C)[C@@H]1NC(=O)[C@H](CCCCN)NC(=O)[C@@H](NC(=O)[C@H](CCCCN)NC(=O)[C@@H](NC(=O)[C@H](CC(N)=O)NC(=O)[C@@H](NC(=O)[C@@H](NC(=O)[C@@H](NC(=O)CN)C(C)C)[C@@H](C)CC)[C@@H](C)CC)C(C)C)CSSC[C@@H]2NC(=O)[C@H](CCCCN)NC(=O)CNC(=O)[C@H](Cc3ccccc3)NC(=O)[C@H](CCCNC(=N)N)NC(=O)[C@H](CCSC)NC(=O)CNC(=O)[C@H](C)NC(=O)[C@H](CCCCN)NC(=O)[C@H](CCCCN)NC(=O)[C@@H]3CSSC[C@@H](C(=O)N[C@H](C(=O)N4CCC[C@H]4C(=O)N[C@@H](CCCCN)C(=O)O)[C@@H](C)O)NC(=O)[C@H](Cc4c[nH]cn4)NC(=O)[C@H](CSSC[C@H](NC(=O)[C@H](CCC(N)=O)NC(=O)[C@H](CCCNC(=N)N)NC(=O)[C@H](CO)NC1=O)C(=O)N[C@@H](Cc1cccc4ccccc14)C(=O)N[C@@H](CCC(=O)O)C(=O)N1CCC[C@H]1C(=O)N3)NC(=O)[C@H](CCCCN)NC(=O)CNC(=O)[C@H](CC(N)=O)NC(=O)[C@H](CCSC)NC2=O [L15Nal] (H-GVIINVKCKISRQC[1Nal]EPCKKAGMRFGKCMNGKCHCTPK-OH; disulfide 8-28, 14-33, 18-35) | 0.37 | 0.358 | – | –
7 | CC[C@H](C)[C@@H]1NC(=O)[C@H](CCCCN)NC(=O)[C@@H](NC(=O)[C@H](CCCNC(=N)N)NC(=O)[C@@H](NC(=O)[C@H](CC(N)=O)NC(=O)[C@@H](NC(=O)[C@@H](NC(=O)[C@@H](NC(=O)CN)C(C)C)[C@@H](C)CC)[C@@H](C)CC)C(C)C)CSSC[C@@H]2NC(=O)[C@H](CCCCN)NC(=O)CNC(=O)[C@H](Cc3ccccc3)NC(=O)[C@H](CCCNC(=N)N)NC(=O)[C@H](CCSC)NC(=O)CNC(=O)[C@H](C)NC(=O)[C@H](CCCCN)NC(=O)[C@H](CCCCN)NC(=O)[C@@H]3CSSC[C@@H](C(=O)N[C@H](C(=O)N4CCC[C@H]4C(=O)N[C@@H](CCCCN)C(=O)O)[C@@H](C)O)NC(=O)[C@H](Cc4c[nH]cn4)NC(=O)[C@H](CSSC[C@H](NC(=O)[C@H](CCC(N)=O)NC(=O)[C@H](CCCNC(=N)N)NC(=O)[C@H](CO)NC1=O)C(=O)N[C@@H](CC(C)C)C(=O)N[C@@H](CCC(=O)O)C(=O)N1CCC[C@H]1C(=O)N3)NC(=O)[C@H](CCCCN)NC(=O)CNC(=O)[C@H](CC(N)=O)NC(=O)[C@H](CCSC)NC2=O [K7R] (H-GVIINVRCKISRQCLEPCKKAGMRFGKCMNGKCHCTPK-OH; disulfide 8-28, 14-33, 18-35) | 0.071 | 0.078 | – | –
